Molecules are shown by their SMILES. “And” between values parts separate entries of the source, which are not always exact repeats. Equal values may be shown once.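 Protocol summary: plate cells (96-well), add compound at 5 concentrations, incubate 48 h, interpolate endpoints linearly. Here, GI50 denotes the concentration required for 50% inhibition of growth. TGI marks complete inhibition of growth.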 Some results are limits rather than exact numbers.

In PubChem BioAssay (NCI) one finds GI50 and TGI data, which are given here for nine molecules.

Among the test systems are TK-10 renal; MDA-MB-231 breast; OVCAR-4 ovarian; A498 renal; PC-3 prostate; SNB-19 CNS; A549 NSCLC; SNB-75 CNS; SF-295 CNS; UO-31 renal.
Holding throughout (experiment): NCI tumour cell line growth inhibition, 48 h

Regarding `COc1cc(C2c3cc4c(cc3C(OC(=O)C[n+]3ccccc3)C3COC(=O)C23)OCO4)cc(OC)c1OC` (configuration not stated), the GI50 with TK-10 renal was > 100 µM; in the assay with MDA-MB-231 breast it was < 0.0214 µM; with OVCAR-4 ovarian it was < 0.0239 µM; in the assay with A498 renal, < 0.01 µM; in the assay with PC-3 prostate, < 0.0187 µM; in the assay on SNB-19 CNS, < 0.0265 µM. For the same molecule, the GI50 with A549 NSCLC is < 0.0197 µM; in the assay with SNB-75 CNS it was 1.33 µM; with SF-295 CNS, < 0.0164 µM; in the assay on UO-31 renal, < 0.0231 µM. Also, the TGI in the assay with TK-10 renal was > 100 µM; in the assay on MDA-MB-231 breast, > 22.4 µM; in the assay on OVCAR-4 ovarian, > 100 µM; in the assay with A498 renal, 15.8 µM; with PC-3 prostate, > 100 µM; in the assay with SNB-19 CNS, > 100 µM. The TGI with A549 NSCLC, with SNB-75 CNS, in the assay with SF-295 CNS and in the assay on UO-31 renal was > 100 µM in each case.
With `Nc1nc(/C=C\c2ccccc2)nc(N2CCN(c3ccccc3)CC2)n1`, the GI50 with TK-10 renal was 28.4 µM; in the assay with MDA-MB-231 breast it was 19.2 µM; in the assay on OVCAR-4 ovarian it was 37.2 µM; in the assay on A498 renal, 35.1 µM; with PC-3 prostate, 27.9 µM; in the assay on SNB-19 CNS, 20.4 µM. For the same molecule, the GI50 in the assay on A549 NSCLC is 31.5 µM; in the assay with SNB-75 CNS it was 22.2 µM; in the assay on SF-295 CNS, 30 µM; in the assay on UO-31 renal it was 38.4 µM. The TGI in the assay with TK-10 renal was 81.1 µM; in the assay with MDA-MB-231 breast, 53.4 µM; in the assay with OVCAR-4 ovarian, > 100 µM; with A498 renal it was 87.9 µM; with PC-3 prostate, > 100 µM; with SNB-19 CNS, 60 µM. For the same molecule, the TGI in the assay with A549 NSCLC is > 100 µM; in the assay on SNB-75 CNS it was 69.4 µM; in the assay with SF-295 CNS it was > 100 µM; in the assay with UO-31 renal, > 100 µM.
For `O=C1/C(=C/c2ccc(Cl)cc2)CNC/C1=C\c1ccc(Cl)cc1`, the TGI in the assay with TK-10 renal is 25.9 µM and 12.3 µM; with MDA-MB-231 breast it was > 100 µM; with A498 renal it was 5.01 µM and 25.6 µM; with PC-3 prostate, 21.2 µM; in the assay with SNB-19 CNS, 3.14 µM and 11 µM; in the assay on A549 NSCLC, > 100 µM and 27.4 µM. Moreover, the TGI is 10.3 µM and > 29.5 µM in the assay on SNB-75 CNS; 4.59 µM and 5.8 µM in the assay on SF-295 CNS; 2.98 µM and 6.5 µM in the assay with UO-31 renal. In addition, the GI50 in the assay on OVCAR-4 ovarian was 1.52 µM; with SF-295 CNS it was 0.532 µM and 2.26 µM; in the assay with UO-31 renal it was 1.62 µM and 3.48 µM.
On to `COC(=O)c1cc2c3ccccc3n3c2c(n1)-c1[nH]c2ccccc2c(=O)c1C3`, for which the GI50 in the assay with TK-10 renal was 23 µM; with MDA-MB-231 breast, 33.7 µM; in the assay with OVCAR-4 ovarian it was > 100 µM; in the assay with A498 renal, 27 µM; in the assay with PC-3 prostate, > 100 µM; in the assay on SNB-19 CNS it was 26.3 µM. Further, the GI50 in the assay with A549 NSCLC was > 100 µM; in the assay with SNB-75 CNS, 16 µM; with SF-295 CNS it was 32 µM; with UO-31 renal it was > 100 µM. In addition, the TGI in the assay on TK-10 renal is 45.9 µM; in the assay with MDA-MB-231 breast, > 100 µM; with OVCAR-4 ovarian it was > 100 µM; in the assay with A498 renal, 73.7 µM; in the assay on PC-3 prostate it was > 100 µM; in the assay on SNB-19 CNS, > 100 µM. Moreover, the TGI was > 100 µM with A549 NSCLC, 71.3 µM in the assay on SNB-75 CNS, > 100 µM with SF-295 CNS and > 100 µM in the assay with UO-31 renal.
On to `CCc1nc2ccc(N=Nc3c(O)ccc4ccccc34)cc2[nH]1`, for which the TGI in the assay with TK-10 renal was 32.6 µM; in the assay on MDA-MB-231 breast, 49.5 µM; in the assay with OVCAR-4 ovarian, 28.4 µM; in the assay on A498 renal, 50.6 µM; with PC-3 prostate, 37.5 µM; with SNB-19 CNS, > 66 µM. For the same molecule, the TGI is 55.8 µM with A549 NSCLC, 37.5 µM in the assay with SNB-75 CNS, 43.5 µM in the assay on SF-295 CNS and 34.5 µM in the assay with UO-31 renal.
In the case of `CCOc1ccn(-c2ccc(F)cc2)c(=O)c1C(=O)Nc1ccc(Oc2ccnc(N)c2Cl)c(F)c1`, the GI50 was 15.1 µM in the assay on TK-10 renal; 6.33 µM in the assay with MDA-MB-231 breast; 19.1 µM in the assay on OVCAR-4 ovarian; 1.6 µM in the assay on A498 renal; 9.02 µM in the assay on PC-3 prostate; 27.8 µM with SNB-19 CNS. The GI50 was 9.12 µM with A549 NSCLC, 2.39 µM with SNB-75 CNS, 0.787 µM in the assay with SF-295 CNS and 8.99 µM in the assay with UO-31 renal. Also, the TGI in the assay on TK-10 renal was 55.2 µM; with MDA-MB-231 breast it was 23.9 µM; in the assay on OVCAR-4 ovarian, > 100 µM; with A498 renal, 12.2 µM; in the assay with PC-3 prostate it was > 100 µM; in the assay on SNB-19 CNS, > 100 µM. The TGI in the assay with A549 NSCLC came to 86.2 µM; with SNB-75 CNS it was 22.5 µM; with SF-295 CNS, 48.3 µM; with UO-31 renal, 63.4 µM.
On to `O=C1O/C(=C/c2ccccc2)C(c2ccccc2)=C1O`, for which the TGI is > 100 µM in the assay with TK-10 renal; > 100 µM with MDA-MB-231 breast; > 100 µM with OVCAR-4 ovarian; 85.6 µM in the assay with A498 renal; > 100 µM in the assay on PC-3 prostate; > 100 µM in the assay on SNB-19 CNS. The TGI in the assay on A549 NSCLC is > 100 µM; in the assay with SNB-75 CNS, > 100 µM; in the assay on SF-295 CNS, > 100 µM; in the assay on UO-31 renal, 88.1 µM.
As to `CCOP(=O)(OCC)C(C(=O)OC)C(=O)C(=O)Nc1cccc(O)c1` (configuration not stated), the TGI in the assay on TK-10 renal, with MDA-MB-231 breast, with OVCAR-4 ovarian, in the assay on A498 renal, with PC-3 prostate and with SNB-19 CNS was > 100 µM in each case. Also, the TGI with A549 NSCLC, in the assay with SNB-75 CNS, in the assay with SF-295 CNS and in the assay on UO-31 renal was > 100 µM in each case.
For `O=C(O)C1[O][Sb][O]C(C(=O)O)C1O` (configuration not stated), the GI50 with TK-10 renal, in the assay with MDA-MB-231 breast, in the assay with OVCAR-4 ovarian, with A498 renal, in the assay on PC-3 prostate and with SNB-19 CNS was > 100 µM throughout. Moreover, the GI50 in the assay on A549 NSCLC, in the assay on SNB-75 CNS, in the assay with SF-295 CNS and with UO-31 renal was > 100 µM each time. The TGI in the assay on TK-10 renal, in the assay with MDA-MB-231 breast, with OVCAR-4 ovarian, in the assay on A498 renal, in the assay with PC-3 prostate and in the assay with SNB-19 CNS was > 100 µM each time. For the same molecule, the TGI with A549 NSCLC, in the assay on SNB-75 CNS, in the assay with SF-295 CNS and with UO-31 renal was > 100 µM each time.
